Read-outs that look alike come from different tables or passages of the source.
Key:
Test in all cases: DiscoverX KINOMEscan kinase profiling (468 assays)
Type in all cases: binding
human kinome [1] = target: human kinome (Homo sapiens, UniProt O14578); details: CIT; 100 nM; read-out: Percent Control
In short: (§1)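 VIP152 was run in DMSO, alongside a DMSO control. Readout was qPCR of DNA-tagged kinase still bound to bead-immobilized biotinylated kinase ligands after compound competition.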

human kinome [2] = target: human kinome (Homo sapiens, UniProt O14965); details: AURKA; 100 nM; read-out: Percent Control
In short: as §1

human kinome [3] = target: human kinome (Homo sapiens, UniProt O60285); details: ARK5 (Entrez NUAK1); 100 nM; read-out: Percent Control
In short: as §1

human kinome [4] = target: human kinome (Homo sapiens, UniProt O94768); details: DRAK2 (Entrez STK17B); 100 nM; read-out: Percent Control
human kinome (Homo sapiens, UniProt O94768), sequence (O94768 whole entry): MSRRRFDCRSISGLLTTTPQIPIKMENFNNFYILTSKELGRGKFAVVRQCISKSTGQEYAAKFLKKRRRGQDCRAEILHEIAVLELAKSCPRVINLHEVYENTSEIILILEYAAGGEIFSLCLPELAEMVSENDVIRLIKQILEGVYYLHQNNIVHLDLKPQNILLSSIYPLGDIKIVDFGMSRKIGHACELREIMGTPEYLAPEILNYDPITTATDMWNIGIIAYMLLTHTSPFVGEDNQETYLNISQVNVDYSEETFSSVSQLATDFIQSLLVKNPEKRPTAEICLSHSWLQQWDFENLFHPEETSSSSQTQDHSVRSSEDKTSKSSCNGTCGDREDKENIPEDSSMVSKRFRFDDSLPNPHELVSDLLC
In short: as §1

human kinome [5] = target: human kinome (Homo sapiens, UniProt P06213); details: INSR; 100 nM; read-out: Percent Control
In short: as §1

human kinome [6] = target: human kinome (Homo sapiens, UniProt P10721, V559D); details: KIT(V559D); 100 nM; read-out: Percent Control
In short: as §1

human kinome [7] = target: human kinome (Homo sapiens, UniProt P23458); details: 100 nM, read-out: Percent Control
human kinome (Homo sapiens, UniProt P23458), sequence (P23458 whole entry): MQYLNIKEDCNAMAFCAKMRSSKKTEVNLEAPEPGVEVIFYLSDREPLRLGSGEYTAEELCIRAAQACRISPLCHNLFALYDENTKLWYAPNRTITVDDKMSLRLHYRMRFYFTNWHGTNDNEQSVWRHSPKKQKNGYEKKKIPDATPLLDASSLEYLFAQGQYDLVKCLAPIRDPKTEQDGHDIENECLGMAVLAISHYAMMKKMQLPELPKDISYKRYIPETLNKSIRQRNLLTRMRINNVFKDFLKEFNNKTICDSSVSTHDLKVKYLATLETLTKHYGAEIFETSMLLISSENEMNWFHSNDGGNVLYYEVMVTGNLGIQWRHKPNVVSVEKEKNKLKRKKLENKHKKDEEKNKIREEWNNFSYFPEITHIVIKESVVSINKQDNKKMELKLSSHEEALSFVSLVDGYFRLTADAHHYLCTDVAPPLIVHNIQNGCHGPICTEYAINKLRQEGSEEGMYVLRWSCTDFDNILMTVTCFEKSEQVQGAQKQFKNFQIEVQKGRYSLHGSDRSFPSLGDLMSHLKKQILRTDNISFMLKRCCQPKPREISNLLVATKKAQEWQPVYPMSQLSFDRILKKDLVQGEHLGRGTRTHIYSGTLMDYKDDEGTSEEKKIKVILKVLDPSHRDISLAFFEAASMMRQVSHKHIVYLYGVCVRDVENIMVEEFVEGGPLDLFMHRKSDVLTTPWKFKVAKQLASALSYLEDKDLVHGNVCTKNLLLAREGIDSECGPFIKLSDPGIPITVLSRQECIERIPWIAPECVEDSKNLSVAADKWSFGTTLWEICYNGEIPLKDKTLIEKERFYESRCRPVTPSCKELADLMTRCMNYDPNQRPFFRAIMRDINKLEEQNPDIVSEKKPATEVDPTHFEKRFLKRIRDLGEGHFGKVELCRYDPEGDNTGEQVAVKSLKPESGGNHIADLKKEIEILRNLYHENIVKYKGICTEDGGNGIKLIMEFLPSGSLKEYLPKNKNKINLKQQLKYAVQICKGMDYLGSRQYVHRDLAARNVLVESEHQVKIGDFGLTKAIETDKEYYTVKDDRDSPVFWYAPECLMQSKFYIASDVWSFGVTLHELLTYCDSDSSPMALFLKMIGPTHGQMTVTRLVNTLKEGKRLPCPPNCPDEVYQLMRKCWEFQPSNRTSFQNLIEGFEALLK
In short: as §1

human kinome [8] = target: human kinome (Homo sapiens, UniProt P29320); details: EPHA3; 100 nM; read-out: Percent Control
In short: as §1

human kinome [9] = target: human kinome (Homo sapiens, UniProt P36888, N841I); details: FLT3(N841I); 100 nM; read-out: Percent Control
In short: as §1

human kinome [10] = target: human kinome (Homo sapiens, UniProt P36897); details: kinase TGFBR1 (Entrez TGFBR1); compound concentration 1000 nM; read-out: Percent Control
In short: as §1

human kinome [11] = target: human kinome (Homo sapiens, UniProt P51957); details: read-out: Percent Control
human kinome (Homo sapiens, UniProt P51957), sequence (P51957 whole entry): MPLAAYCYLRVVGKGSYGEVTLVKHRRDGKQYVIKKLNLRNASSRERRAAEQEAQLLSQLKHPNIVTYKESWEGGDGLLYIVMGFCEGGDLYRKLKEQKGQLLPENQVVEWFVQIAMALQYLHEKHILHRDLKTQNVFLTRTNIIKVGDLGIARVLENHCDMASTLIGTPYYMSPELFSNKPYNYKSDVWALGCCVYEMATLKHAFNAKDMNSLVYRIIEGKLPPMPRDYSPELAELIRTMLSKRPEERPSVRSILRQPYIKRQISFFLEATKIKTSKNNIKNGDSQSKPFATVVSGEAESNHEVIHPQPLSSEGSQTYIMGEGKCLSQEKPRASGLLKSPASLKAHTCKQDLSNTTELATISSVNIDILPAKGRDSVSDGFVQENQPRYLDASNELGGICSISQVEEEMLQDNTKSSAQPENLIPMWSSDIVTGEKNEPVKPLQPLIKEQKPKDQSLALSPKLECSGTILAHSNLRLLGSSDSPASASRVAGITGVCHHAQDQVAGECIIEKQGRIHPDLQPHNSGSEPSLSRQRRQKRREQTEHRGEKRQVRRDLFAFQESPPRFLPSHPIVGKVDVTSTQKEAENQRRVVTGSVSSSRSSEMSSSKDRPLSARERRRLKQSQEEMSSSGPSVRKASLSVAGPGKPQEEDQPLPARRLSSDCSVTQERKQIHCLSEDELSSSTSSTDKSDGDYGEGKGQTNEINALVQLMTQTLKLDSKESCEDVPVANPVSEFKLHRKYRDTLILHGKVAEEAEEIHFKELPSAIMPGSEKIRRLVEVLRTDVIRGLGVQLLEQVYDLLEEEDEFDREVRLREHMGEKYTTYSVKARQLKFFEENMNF
In short: as §1

human kinome [12] = target: human kinome (Homo sapiens, UniProt P57058); details: HUNK; 100 nM; read-out: Percent Control
In short: as §1

human kinome [13] = target: human kinome (Homo sapiens, UniProt P78368); details: CSNK1G2; 100 nM; read-out: Percent Control
In short: as §1

human kinome [14] = target: human kinome (Homo sapiens, UniProt Q00536); details: read-out: Percent Control
human kinome (Homo sapiens, UniProt Q00536), sequence (Q00536 whole entry): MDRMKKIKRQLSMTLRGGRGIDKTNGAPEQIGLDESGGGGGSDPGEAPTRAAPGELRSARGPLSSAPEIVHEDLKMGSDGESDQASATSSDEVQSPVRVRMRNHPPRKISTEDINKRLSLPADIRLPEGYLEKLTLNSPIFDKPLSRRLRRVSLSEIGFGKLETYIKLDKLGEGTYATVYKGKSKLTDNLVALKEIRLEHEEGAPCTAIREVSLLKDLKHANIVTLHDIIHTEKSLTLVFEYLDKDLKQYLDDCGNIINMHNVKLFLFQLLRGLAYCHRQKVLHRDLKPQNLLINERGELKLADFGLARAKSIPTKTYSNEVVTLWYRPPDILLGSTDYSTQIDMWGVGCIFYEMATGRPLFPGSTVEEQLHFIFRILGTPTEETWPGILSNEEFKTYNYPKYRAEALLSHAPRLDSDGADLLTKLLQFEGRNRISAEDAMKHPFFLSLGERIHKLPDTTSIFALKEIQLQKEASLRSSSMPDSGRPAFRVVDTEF
In short: as §1

human kinome [15] = target: human kinome (Homo sapiens, UniProt Q12866); details: MERTK; 100 nM; read-out: Percent Control
In short: as §1

human kinome [16] = target: human kinome (Homo sapiens, UniProt Q13043); details: MST1 (Entrez STK4); 100 nM; read-out: Percent Control
In short: as §1

human kinome [17] = target: human kinome (Homo sapiens, UniProt Q6P2M8); details: CAMK1B (Entrez PNCK); 100 nM; read-out: Percent Control
In short: as §1

human kinome [18] = target: human kinome (Homo sapiens, UniProt Q6PHR2); details: kinase ULK3 (Entrez ULK3); compound concentration 1000 nM; read-out: Percent Control
human kinome (Homo sapiens, UniProt Q6PHR2), sequence (Q6PHR2 whole entry): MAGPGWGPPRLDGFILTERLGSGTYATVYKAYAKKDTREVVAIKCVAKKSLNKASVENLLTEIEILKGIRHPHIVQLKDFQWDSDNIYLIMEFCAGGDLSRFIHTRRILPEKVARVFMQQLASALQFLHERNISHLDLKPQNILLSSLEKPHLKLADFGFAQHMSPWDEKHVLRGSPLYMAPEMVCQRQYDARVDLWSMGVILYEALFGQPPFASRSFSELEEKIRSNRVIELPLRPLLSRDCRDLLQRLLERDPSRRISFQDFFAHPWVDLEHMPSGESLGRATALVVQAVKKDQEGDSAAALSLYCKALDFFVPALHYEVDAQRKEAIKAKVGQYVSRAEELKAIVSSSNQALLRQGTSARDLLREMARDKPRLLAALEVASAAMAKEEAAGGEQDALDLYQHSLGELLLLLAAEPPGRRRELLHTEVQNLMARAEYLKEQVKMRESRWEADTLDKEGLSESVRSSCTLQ
In short: as §1

human kinome [19] = target: human kinome (Homo sapiens, UniProt Q8N568); details: DCAMKL2 (Entrez DCLK2); 100 nM; read-out: Percent Control
In short: as §1

human kinome [20] = target: human kinome (Homo sapiens, UniProt Q8NG66); details: read-out: Percent Control
human kinome (Homo sapiens, UniProt Q8NG66), sequence (Q8NG66 whole entry): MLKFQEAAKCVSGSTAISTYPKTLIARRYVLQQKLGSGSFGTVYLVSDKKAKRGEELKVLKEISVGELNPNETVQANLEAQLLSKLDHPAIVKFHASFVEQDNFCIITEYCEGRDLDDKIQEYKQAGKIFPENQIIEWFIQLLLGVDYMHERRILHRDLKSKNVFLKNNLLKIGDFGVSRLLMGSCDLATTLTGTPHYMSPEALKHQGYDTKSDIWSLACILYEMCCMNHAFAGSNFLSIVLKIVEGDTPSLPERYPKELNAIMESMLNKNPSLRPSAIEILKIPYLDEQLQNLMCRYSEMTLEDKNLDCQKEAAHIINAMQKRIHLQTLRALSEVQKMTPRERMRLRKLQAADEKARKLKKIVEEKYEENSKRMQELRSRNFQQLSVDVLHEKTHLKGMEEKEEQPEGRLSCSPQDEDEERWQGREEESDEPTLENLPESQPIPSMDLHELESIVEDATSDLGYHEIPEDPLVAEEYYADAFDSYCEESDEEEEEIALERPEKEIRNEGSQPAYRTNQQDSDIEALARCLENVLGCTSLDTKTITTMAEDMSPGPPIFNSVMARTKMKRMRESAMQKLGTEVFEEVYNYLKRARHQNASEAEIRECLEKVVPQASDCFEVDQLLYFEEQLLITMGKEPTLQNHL
In short: as §1

human kinome [21] = target: human kinome (Homo sapiens, UniProt Q8WTQ7); details: GRK7; 100 nM; read-out: Percent Control
In short: as §1

human kinome [22] = target: human kinome (Homo sapiens, UniProt Q92918); details: HPK1 (Entrez MAP4K1); 100 nM; read-out: Percent Control
In short: as §1

human kinome [23] = target: human kinome (Homo sapiens, UniProt Q96BR1); details: kinase SGK3 (Entrez SGK3); compound concentration 1000 nM; read-out: Percent Control
In short: as §1

human kinome [24] = target: human kinome (Homo sapiens, UniProt Q99759); details: MAP3K3; 100 nM; read-out: Percent Control
In short: as §1

human kinome [25] = target: human kinome (Homo sapiens, UniProt Q9BYT3); details: kinase STK33 (Entrez STK33); compound concentration 1000 nM; read-out: Percent Control
In short: as §1

human kinome [26] = target: human kinome (Homo sapiens, UniProt Q9H093); details: kinase SNARK (Entrez NUAK2); compound concentration 1000 nM; read-out: Percent Control
In short: as §1

human kinome [27] = target: human kinome (Homo sapiens, UniProt Q9H0K1); details: kinase SIK2 (Entrez SIK2); compound concentration 1000 nM; read-out: Percent Control
In short: as §1

human kinome [28] = target: human kinome (Homo sapiens, UniProt Q9P289); details: MST4; 100 nM; read-out: Percent Control
In short: as §1

human kinome [29] = target: human kinome (Homo sapiens, UniProt Q9UKI8); details: kinase TLK1 (Entrez TLK1); compound concentration 1000 nM; read-out: Percent Control
human kinome (Homo sapiens, UniProt Q9UKI8), sequence (Q9UKI8 whole entry): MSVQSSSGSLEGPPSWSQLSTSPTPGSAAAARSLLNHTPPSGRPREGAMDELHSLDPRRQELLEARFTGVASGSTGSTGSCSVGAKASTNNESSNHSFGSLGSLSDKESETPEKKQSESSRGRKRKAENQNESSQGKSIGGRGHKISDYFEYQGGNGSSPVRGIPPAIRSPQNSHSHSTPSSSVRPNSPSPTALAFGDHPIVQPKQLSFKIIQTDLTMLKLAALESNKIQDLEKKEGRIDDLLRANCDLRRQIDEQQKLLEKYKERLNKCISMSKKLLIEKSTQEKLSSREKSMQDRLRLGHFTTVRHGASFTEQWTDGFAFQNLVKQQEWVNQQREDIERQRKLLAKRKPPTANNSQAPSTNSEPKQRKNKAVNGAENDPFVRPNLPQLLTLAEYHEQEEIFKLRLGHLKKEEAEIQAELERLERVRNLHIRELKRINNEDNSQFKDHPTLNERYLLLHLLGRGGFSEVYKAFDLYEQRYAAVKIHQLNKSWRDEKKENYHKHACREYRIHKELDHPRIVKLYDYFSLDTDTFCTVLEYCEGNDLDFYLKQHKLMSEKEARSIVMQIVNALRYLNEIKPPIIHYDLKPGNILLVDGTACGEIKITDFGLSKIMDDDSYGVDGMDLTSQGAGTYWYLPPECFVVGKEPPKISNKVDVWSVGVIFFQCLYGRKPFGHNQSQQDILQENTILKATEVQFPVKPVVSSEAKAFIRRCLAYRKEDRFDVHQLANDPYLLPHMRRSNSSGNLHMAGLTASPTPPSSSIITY
In short: as §1

human kinome [30] = target: human kinome (Homo sapiens, UniProt Q9Y6M4); details: CSNK1G3; 100 nM; read-out: Percent Control
In short: as §1

COc1cc(F)ccc1-c1cc(Nc2cc(CS(C)(=N)=O)ccn2)ncc1F (stereo not shown) [VIP152] gave a remaining binding at 0.1 µM (human kinome [1]) of 100%, a remaining binding at 0.1 µM (human kinome [2]) of 100% and a remaining binding at 0.1 µM (human kinome [3]) of 100%. The remaining binding at 0.1 µM (human kinome [4]) was 100%, the remaining binding at 0.1 µM (human kinome [5]) was 100% and the remaining binding at 0.1 µM (human kinome [6]) was 100%. The remaining binding at 0.1 µM (human kinome [7]; JAK1(JH1domain-catalytic)) was 87%, the remaining binding at 0.1 µM (human kinome [7]; JAK1(JH2domain-pseudokinase)) was 100% and the remaining binding at 0.1 µM (human kinome [8]) was 100%. The remaining binding at 0.1 µM (human kinome [9]) was 66%, the remaining binding at 1 µM (human kinome [10]) was 91% and the remaining binding at 0.1 µM (human kinome [11]; NEK4, 100 nM) was 100%. It also gave a remaining binding at 1 µM (human kinome [11]; kinase NEK4 (Entrez NEK4), compound concentration 1000 nM) of 100%, a remaining binding at 0.1 µM (human kinome [12]) of 88% and a remaining binding at 0.1 µM (human kinome [13]) of 100%. The remaining binding at 0.1 µM (human kinome [14]; PCTK1 (Entrez CDK16), 100 nM) was 83%, the remaining binding at 1 µM (human kinome [14]; kinase PCTK1 (Entrez CDK16), compound concentration 1000 nM) was 24% and the remaining binding at 0.1 µM (human kinome [15]) was 100%. The remaining binding at 0.1 µM (human kinome [16]) was 99%, the remaining binding at 0.1 µM (human kinome [17]) was 87% and the remaining binding at 1 µM (human kinome [18]) was 85%. It also gave a remaining binding at 0.1 µM (human kinome [19]) of 100%, a remaining binding at 0.1 µM (human kinome [20]; NEK11, 100 nM) of 100% and a remaining binding at 1 µM (human kinome [20]; kinase NEK11 (Entrez NEK11), compound concentration 1000 nM) of 74%. The remaining binding at 0.1 µM (human kinome [21]) was 100%, the remaining binding at 0.1 µM (human kinome [22]) was 90% and the remaining binding at 1 µM (human kinome [23]) was 60%. For the same molecule, the remaining binding at 0.1 µM (human kinome [24]) was 100%, the remaining binding at 1 µM (human kinome [25]) was 84% and the remaining binding at 1 µM (human kinome [26]) was 78%. It also gave a remaining binding at 1 µM (human kinome [27]) of 79%, a remaining binding at 0.1 µM (human kinome [28]) of 100% and a remaining binding at 1 µM (human kinome [29]) of 89%. The remaining binding at 0.1 µM (human kinome [30]) was 98%.
